Experimental data taken from patent US9409952B2, “Peptide-compound cyclization method” (Chugai Seiyaku Kabushiki Kaisha, priority 2011, dated 2016).
Like-named read-outs stand apart in the source and are kept apart here. Starred links: 1 amine or outer side, 2 acyl side, 3 side chain; linkers in the order of their positions; H or OH if unused. Positions of bridges follow the written chain, without caps; N, C: chain ends. Non-standard residues stand in square brackets, D forms with d. Residues, ends and D or L forms follow the SMILES beside them. *: point of attachment. Phe(4-(CH2)5CO) = O=C([C@H](Cc1ccc(CCCCCC(=O)[*:3])cc1)N[*:1])[*:2]; NMePhe(3-Cl) = CN[C@@H](Cc1cccc(Cl)c1)C(=O)O; NMeF = CN[C@@H](Cc1ccccc1)C(=O)O; NMeI = CC[C@H](C)[C@H](NC)C(=O)O; NMeL = CN[C@@H](CC(C)C)C(=O)O; NMeV = CN[C@H](C(=O)O)C(C)C; NMeA = CN[C@@H](C)C(=O)O; Piperidide = C1CCN(*)CC1; dNMeA = CN[C@H](C)C(=O)O; β3hA = C[C@H](N)CC(=O)O; Abu = CC[C@H](N)C(=O)O; Sar = CNCC(=O)O; tBu = CC(C)(C)*

Assays:
[1] = PAMPA (parallel artificial membrane permeability assay); assay type: in vitro ADME; conditions: PAMPA
How it was run: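 Artificial membrane was 10% (w/v) egg lecithin plus 0.5% (w/v) cholesterol in dodecane on a PVDF filter. A 10 mM DMSO stock was added at 0.5% (v/v) to donor buffer (50 mM MOPSO, pH 6.5, 5.0% glycocholic acid). After 18 h at 37 °C, LC/MS or LC/UV gave donor and acceptor levels for Pe.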

[2] = Metabolic stability in human hepatic microsome; assay type: in vitro ADME; conditions: microsomes
[3] = membrane permeation rate (Pe), 50 mM MOPSO buffer pH 6.5 with 5.0% glycocholic acid, 37° C., 18 hours, read-out: iPAMPA Pe
[4] = pH 7.4, human hepatic microsome, NADPH(+), read-out: CL NADPH(+)

SMILES	Papp at 18 hours, 50 µM [1, 3]	microsomal CLint at 1 uM [2, 4]	Papp at 18 hours, 50 µM ([1]; pH 6.5)	microsomal CLint at 1 uM ([2]; human, pH 7.4, CL NADPH(+))
CC[C@H](C)[C@H]1C(=O)N[C@@H](COC(C)(C)C)C(=O)N(C)[C@@H](Cc2ccccc2)C(=O)N(C)[C@@H](C(C)C)C(=O)N[C@H](C(=O)N2CCCCC2)Cc2ccc(cc2)CCCCCC(=O)N(C)[C@@H](Cc2ccccc2)C(=O)N[C@@H](CC(C)C)C(=O)N(C)[C@@H](CC(C)C)C(=O)N[C@@H]([C@@H](C)O)C(=O)N(C)CC(=O)N1C [DP-852] ([NMeF]L[NMeL]T[Sar][NMeI]S(tBu)[NMeF][NMeV][Phe(4-(CH2)5CO)]-Piperidide; lactam N-10)	0.7 ×10⁻⁶ cm/s	484 µL/min/mg	–	–
CC(C)C[C@H]1C(=O)N[C@H](C(=O)N2CCCCC2)CC(=O)N[C@H](C)C(=O)N(C)[C@@H](C)C(=O)N(C)[C@@H](Cc2ccccc2)C(=O)N(C)[C@@H](CC(C)C)C(=O)N[C@@H]([C@@H](C)O)C(=O)N1C [DP-739] ([dA][NMeA][NMeF][NMeL]T[NMeL]D-Piperidide; lactam N-7)	18 ×10⁻⁶ cm/s	164 µL/min/mg	–	–
CC[C@H](C)[C@H]1C(=O)NCC(=O)N(C)[C@@H](C)C(=O)N[C@@H](CC(C)C)C(=O)N[C@@H](C)CC(=O)N(C)[C@@H](C)C(=O)N[C@@H](CC(C)C)C(=O)N(C)[C@@H](C)C(=O)N[C@@H]([C@@H](C)O)C(=O)N2CCC[C@H]2C(=O)N1C [DP-827] (cyclo(G[NMeA]L[β3hA][NMeA]L[NMeA]TP[NMeI]))	–	–	5.8 ×10⁻⁶ cm/s	49 µL/min/mg
CC(C)C[C@@H]1NC(=O)[C@H](Cc2ccccc2)N(C)C(=O)CN(C)C(=O)[C@H]([C@@H](C)O)NC(=O)[C@H](CC(C)C)N(C)C(=O)[C@H](C)NC(=O)C[C@@H](C(=O)N(C)[C@@H](Cc2ccccc2)C(=O)N(C)[C@@H](C)C(=O)N2CCC[C@H]2C(=O)N(C)[C@@H](Cc2ccccc2)C(=O)N[C@@H](C)C(=O)N2CCCCC2)NC1=O [DP-565] (A[NMeL]T[Sar][NMeF]LD[NMeF][NMeA]P[NMeF]A-Piperidide; lactam N-7)	18 ×10⁻⁶ cm/s	56 µL/min/mg	–	–
CC(C)C[C@@H]1NC(=O)[C@H](C)N(C)C(=O)[C@H]([C@@H](C)O)NC(=O)[C@H](Cc2ccccc2)N(C)C(=O)CNC(=O)[C@H](C(C)C)N(C)C(=O)[C@H](C(C)C)NC(=O)[C@H](C)N(C)C(=O)[C@H](Cc2ccccc2)NC(=O)[C@H](C)N(C)C(=O)[C@@H](C)N(C)C(=O)C[C@H](C)NC1=O [DP-753] (cyclo(F[NMeA]V[NMeV]G[NMeF]T[NMeA]L[β3hA][dNMeA][NMeA]))	10 ×10⁻⁶ cm/s	35 µL/min/mg	–	–
CC(C)C[C@@H]1NC(=O)[C@H](Cc2ccccc2)N(C)C(=O)[C@H](C)NC(=O)[C@H](C)N(C)C(=O)C[C@@H](C(=O)N2CCCCC2)NC(=O)[C@H]([C@@H](C)O)NC(=O)[C@H](C)N(C)C(=O)[C@H](C)N(C)C(=O)[C@H](Cc2ccccc2)NC(=O)CN(C)C(=O)[C@H](C(C)C)N(C)C(=O)[C@H](C)N(C)C1=O [DP-470] ([NMeA]A[NMeF]L[NMeA][NMeV][Sar]F[NMeA][NMeA]TD-Piperidide; lactam N-12)	1.2 ×10⁻⁶ cm/s	11 µL/min/mg	–	–
CC[C@H](C)[C@H]1C(=O)N[C@@H](Cc2ccccc2)C(=O)N[C@@H](Cc2ccccc2)C(=O)N2CCC[C@H]2C(=O)N[C@@H]([C@@H](C)O)C(=O)N(C)[C@@H](CC(C)C)C(=O)N[C@H](C(=O)N2CCCCC2)CC(=O)N[C@@H](C)C(=O)N[C@@H](C)C(=O)N(C)[C@@H](CC(C)C)C(=O)N[C@@H](CC(C)C)C(=O)N1C [DP-29] (AA[NMeL]L[NMeI]FFPT[NMeL]D-Piperidide; lactam N-11)	–	–	31 ×10⁻⁶ cm/s	158 µL/min/mg
CC[C@H](C)[C@H]1C(=O)N(C)[C@@H](CC(C)C)C(=O)N[C@@H]([C@@H](C)O)C(=O)N[C@H](C(=O)N2CCCCC2)CC(=O)N[C@H](C(C)C)C(=O)N(C)[C@@H](C)C(=O)N(C)[C@@H](CC(C)C)C(=O)N(C)[C@@H](Cc2ccccc2)C(=O)N[C@@H](C)C(=O)N(C)[C@@H](CC(C)C)C(=O)N(C)[C@@H](Cc2ccccc2)C(=O)N1C [DP-234] ([dV][NMeA][NMeL][NMeF]A[NMeL][NMeF][NMeI][NMeL]TD-Piperidide; lactam N-11)	2 ×10⁻⁶ cm/s	91 µL/min/mg	–	–
CC[C@H](C)[C@H]1C(=O)N[C@@H](C)CC(=O)N(C)[C@H](C)C(=O)N(C)[C@@H](Cc2cccc(Cl)c2)C(=O)N(C)[C@@H](CC(C)C)C(=O)N[C@@H]([C@@H](C)O)C(=O)N(C)CC(=O)N[C@@H](COC(C)(C)C)C(=O)N(C)[C@@H](CC(C)C)C(=O)N1C [DP-799] (cyclo([NMeI][β3hA][dNMeA][NMePhe(3-Cl)][NMeL]T[Sar]S(tBu)[NMeL]))	32 ×10⁻⁶ cm/s	222 µL/min/mg	–	–
CC(C)C[C@H]1C(=O)N[C@H](C(=O)N(C)[C@@H](Cc2ccccc2)C(=O)N[C@@H](C)C(=O)N2CCCCC2)CC(=O)N(C)[C@H](C)C(=O)N(C)[C@@H](Cc2ccccc2)C(=O)N(C)[C@@H](CC(C)C)C(=O)N[C@@H]([C@@H](C)O)C(=O)N(C)[C@@H](C)C(=O)N(C)[C@@H](CC(C)C)C(=O)N[C@@H](C(C)C)C(=O)N1C [DP-313] ([dNMeA][NMeF][NMeL]T[NMeA][NMeL]V[NMeL]D[NMeF]A-Piperidide; lactam N-9)	–	–	21 ×10⁻⁶ cm/s	61 µL/min/mg
CC[C@H](C)[C@H]1C(=O)N(C)[C@@H](Cc2ccccc2)C(=O)NCC(=O)N[C@@H]([C@@H](C)O)C(=O)N[C@@H](Cc2ccccc2)C(=O)N(C)[C@@H](CC(C)C)C(=O)N2CCC[C@H]2C(=O)N[C@H](C(=O)N2CCCCC2)CC(=O)N[C@H](C)C(=O)N[C@@H](CC(C)C)C(=O)N(C)[C@@H](C)C(=O)N[C@@H](CC(C)C)C(=O)N1C [DP-54] ([dA]L[NMeA]L[NMeI][NMeF]GTF[NMeL]PD-Piperidide; lactam N-12)	–	–	15 ×10⁻⁶ cm/s	13 µL/min/mg
CC[C@@H]1NC(=O)C[C@H](C)NC(=O)[C@H](CC(C)C)N(C)C(=O)[C@H](CC(C)C)N(C)C(=O)[C@H](CC(C)C)N(C)C(=O)[C@@H](C)NC(=O)[C@H](CO)NC(=O)[C@H](CC(C)C)N(C)C(=O)[C@H](CC(C)C)NC(=O)[C@H](CC(C)C)N(C)C(=O)CN(C)C1=O [DP-651] (cyclo([Abu][Sar][NMeL]L[NMeL]S[dA][NMeL][NMeL][NMeL][β3hA]))	24 ×10⁻⁶ cm/s	68 µL/min/mg	–	–
CC[C@H](C)[C@@H]1NC(=O)CN(C)C(=O)[C@H](Cc2ccccc2)N(C)C(=O)[C@H](C)N(C)C(=O)[C@H]([C@@H](C)O)NC(=O)[C@H](CC(C)C)N(C)C(=O)[C@@H](C)N(C)C(=O)C[C@@H](C(=O)N(C)[C@@H](Cc2ccccc2)C(=O)N[C@@H](C)C(=O)N2CCCCC2)NC(=O)[C@H](C(C)C)N(C)C(=O)[C@H](CC(C)C)N(C)C1=O [DP-371] ([dNMeA][NMeL]T[NMeA][NMeF][Sar]I[NMeL][NMeV]D[NMeF]A-Piperidide; lactam N-10)	34 ×10⁻⁶ cm/s	31 µL/min/mg	–	–
CC[C@H](C)[C@@H]1NC(=O)[C@H](C)NC(=O)C[C@@H](C(=O)N(C)[C@@H](Cc2ccccc2)C(=O)N[C@@H](C)C(=O)N2CCCCC2)NC(=O)[C@H](Cc2ccccc2)NC(=O)[C@H](C)N(C)C(=O)[C@H](C(C)C)N(C)C(=O)CN(C)C(=O)[C@H]([C@@H](C)O)NC(=O)[C@H](Cc2ccccc2)N(C)C(=O)[C@H](CC(C)C)N(C)C(=O)[C@H](CC(C)C)N(C)C1=O [DP-483] (AI[NMeL][NMeL][NMeF]T[Sar][NMeV][NMeA]FD[NMeF]A-Piperidide; lactam N-11)	18 ×10⁻⁶ cm/s	23 µL/min/mg	–	–
